Assay [1] has as its target T1, GST-TIE2 (intracellular domains of human TIE2) (Homo sapiens, UniProt Q02763).
T1 construct: made in house
Nature of the assay: TIE-2 enzyme assay (TIE2-E), LANCE method. In kind it is biochemical. The settings on record: 80 uM ATP. As for the experimental part:
TIE-2Enzyme Assay (TIE2-E)
The TIE-2 enzyme assay used the LANCE method (Wallac) and GST-TIE2, baculovirus expressed recombinant constructs of the intracellular domains of human TIE2 (amino acids 762–1104, GenBank Accession # L06139) tagged by GST). […] This peptide phosphorylation was detected using the following procedure: for enzyme preactivation, GST-TIE2 was incubated for 30 mins at room temperature with 2 mM ATP, 5 mM MgCl2 and 12.5 mM DTT in 22.5 mM HEPES buffer (pH7.4). Preactivated GST-TIE2 was incubated for 30 mins at room temperature in 96 well plates with 1 μM D1-15 peptide, 80 uM ATP, 10 mM MgCl2, 0.1 mg/ml BSA and the test compound (diluted from a 10 mM stock in DMSO, final DMSO concentration was 2.4%) in 1 mM HEPES (pH7.4). The reaction was stopped by the addition of EDTA (final concentration 45 mM). Streptavidin linked-APC (allophycocyanin, Molecular Probe) and Europium-labeled anti-phosphorylated tyrosine antibody (Wallac) were then added at the final concentration of 17 μg/well and 2.1 μg/well, respectively. The APC signal was measured using an ARVO multilabel counter. (Wallac Berthold Japan). The percent inhibition of activity was calculated relative to blank control wells. The concentration of test compound that inhibits 50% of activity (IC50) was interpolated using nonlinear regression (Levernberg-Marquardt) and the equation, y=Vmax (1−x/(K+x))+Y2, where “K” was equal to the IC50. The IC50 values were converted to pIC50 values, i.e., −log IC50 in Molar concentration.
On the technique in general: In TR-FRET formats the signal depends on donor and acceptor labels being close together.

Assay [2] has as its target T2, TIE2 intracellular domain/c-fms extracellular domain (TIE2/c-fms) chimeric protein expressing mouse 3T3 cells (Homo sapiens, UniProt Q02763).
T2 construct: a TIE2 intracellular domain/c-fms extracellular domain (TIE2/c-fms) chimeric protein; expressed in transfected cells; host or cells: mouse 3T3 cells
The assay can be described thus: TIE-2 autophosphorylation assay (TIE2-C), ELISA. In kind it is cell-based. The settings on record: TIE2/c-fms 3T3 cells, MCSF activation. The procedure:
TIE-2 Autophosphorylation Assay (TIE2-C)
The TIE-2 autophosphorylation assay used an ELISA method and a TIE2 intracellular domain/c-fms extracellular domain (TIE2/c-fms) chimeric protein expressing mouse 3T3 cells. This assay measured the autophosphorylation level of TIE2 protein expressed in cells. The cells were cultured in high glucose DMEM (Sigma) containing 10% serum at 37° C. in a humidified 10% CO2, 90% air incubator. The test compound (diluted from a 10 mM stock in DMSO, final DMSO concentration was 0.1%) was incubated with TIE2/c-fms expressing cells for 1 hr in serum free DMEM in 96 well plates followed by the activation of TIE2/c-fms receptor using c-fms ligand, MCSF (macrophage colony stimulating factor). The culture media was removed by aspiration and the cells incubated for at least 30 mins on ice with lysis buffer containing 137 mM NaCl, 2 mM EDTA, 10% glycerol, […] sodium ortho vanadate and complete protease inhibitor cocktail (Roche) in 20 mM Tris-HCl (pH8.0). The cell extracts were transferred into Rat anti-c-fms antibody coated 96 well plates and incubated for 12 hrs at 4° C. The extracts were removed by aspiration and the plate was incubated with biotinylated anti-phosphotyrosine antibody, PT66 (Sigma) and then with HRP (Horseradish Peroxidase)-labeled streptavidin (PIERCE). The optical density at 450 nm derived from HRP catalyzed TMB was measured with an ARVO multilabel counter. (Wallac Berthold Japan). The percent inhibition of activity was calculated relative to blank control wells. The concentration of test compound that inhibits 50% of activity (IC50) was interpolated using nonlinear regression (Levernberg-Marquardt) and the equation, y=Vmax (1−x/(K+x))+Y2, where “K” was equal to the IC50. The IC50 values were converted to pIC50 values, i.e., −log IC50 in Molar concentration.
In general terms: An ELISA detects its analyte on a solid surface through an enzyme-linked reagent.

The target in the next assay is T3, GST-VEGFR2 (Homo sapiens, UniProt P35968).
T3 construct: GST-VEGFR2, baculovirus expressed recombinant constructs of the intracellular domains of human TIE2 tagged by GST; made in house
Nature of the assay: VEGF-R2 enzyme assay (VEGF-E), LANCE method. In kind it is biochemical. The settings on record: 75 μM ATP. The procedure: VEGF-R2 Enzyme Assay (VEGF-E)
The VEGF enzyme assay used the LANCE method (Wallac) and GST-VEGFR2, baculovirus expressed recombinant constructs of the intracellular domains of human […] tagged by GST. […] The reaction was stopped by the addition of EDTA (final concentration 50 mM). Streptavidin linked-APC (allophycocyanin, Molecular Probe) and Europium-labeled anti-phosphorylated tyrosine antibody (Wallac) were then added at the final concentration of 15 nM and 1 nM, respectively. The APC signal was measured using an ARVO multilabel counter (Wallac Berthold, Japan). The percent inhibition of activity was calculated relative to blank control wells. The concentration of test compound that inhibits 50% of activity (IC50) was interpolated using nonlinear regression (Levernberg-Marquardt) and the equation, y=Vmax (1−x/(K+x))+Y2, where “K” was equal to the IC50. The IC50 values were converted to pIC50 values, i.e., −log IC50 in Molar concentration.

Counter-ions that a name gives are not always drawn.

T2 sequence (Q02763 770-1124 limits assumed, change not shown): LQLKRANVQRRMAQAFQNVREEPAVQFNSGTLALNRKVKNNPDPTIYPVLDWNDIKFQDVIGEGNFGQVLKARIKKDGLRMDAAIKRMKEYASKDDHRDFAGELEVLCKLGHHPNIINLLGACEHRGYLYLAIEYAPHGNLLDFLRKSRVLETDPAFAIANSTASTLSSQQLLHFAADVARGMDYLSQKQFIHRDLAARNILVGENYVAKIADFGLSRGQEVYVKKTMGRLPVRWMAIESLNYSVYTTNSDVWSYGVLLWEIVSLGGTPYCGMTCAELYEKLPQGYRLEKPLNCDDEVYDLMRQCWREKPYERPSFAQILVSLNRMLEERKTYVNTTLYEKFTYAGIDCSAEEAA
T1 sequence (Q02763 762-1104): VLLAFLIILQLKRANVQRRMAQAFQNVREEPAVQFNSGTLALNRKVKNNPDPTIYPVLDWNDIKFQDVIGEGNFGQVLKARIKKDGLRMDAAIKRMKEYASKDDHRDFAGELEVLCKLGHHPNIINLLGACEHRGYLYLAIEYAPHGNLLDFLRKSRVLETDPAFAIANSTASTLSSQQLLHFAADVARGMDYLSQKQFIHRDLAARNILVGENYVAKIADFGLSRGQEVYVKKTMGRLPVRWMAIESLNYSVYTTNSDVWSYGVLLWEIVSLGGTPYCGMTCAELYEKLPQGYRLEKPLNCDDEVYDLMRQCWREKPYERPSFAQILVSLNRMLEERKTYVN
T3 sequence (P35968 786-1356 limits assumed): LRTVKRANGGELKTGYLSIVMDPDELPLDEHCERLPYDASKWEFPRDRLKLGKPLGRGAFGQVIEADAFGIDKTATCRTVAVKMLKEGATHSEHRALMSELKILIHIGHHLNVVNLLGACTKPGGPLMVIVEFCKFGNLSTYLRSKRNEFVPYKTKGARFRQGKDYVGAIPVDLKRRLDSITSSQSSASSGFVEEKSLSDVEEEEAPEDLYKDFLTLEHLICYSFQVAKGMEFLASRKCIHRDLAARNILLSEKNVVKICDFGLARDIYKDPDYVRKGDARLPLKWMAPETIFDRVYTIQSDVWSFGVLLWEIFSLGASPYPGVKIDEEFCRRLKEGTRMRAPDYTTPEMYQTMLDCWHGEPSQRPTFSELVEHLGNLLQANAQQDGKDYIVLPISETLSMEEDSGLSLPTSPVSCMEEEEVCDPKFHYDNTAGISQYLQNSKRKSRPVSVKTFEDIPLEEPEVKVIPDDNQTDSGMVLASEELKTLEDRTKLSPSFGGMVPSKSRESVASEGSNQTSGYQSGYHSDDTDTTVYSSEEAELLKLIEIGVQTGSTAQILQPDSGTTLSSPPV

In general, IC50 refers to the point on the concentration scale where inhibition reaches its midpoint. Low readings indicate greater potency, high ones weaker potency. For the molecule `CCc1cccc(NC(=O)Nc2ccc(Oc3ccc4[nH]c(NC(=O)OC)nc4c3)nc2)c1` [Example 39, Methyl N-(5-(5-((3-ethylphenyl)aminocarbonylamino)-2-pyridyloxy)-1H-benzimidazol-2-yl)carbamate], the IC50 (in assay [1]; in assay [2]; against GST-VEGFR2) was 100 to 1000 nM each time.
Turning to `CN1CCN(CCCNc2nc3ccc(Oc4ccc(NC(=O)Nc5cc(C(F)(F)F)ccc5F)cc4)cc3[nH]2)CC1` [Example 106, 2-(3-(4-methyl-1-piperazino)propylamino)-5-(4-((2-fluoro-5-(trifluoromethyl)phenyl)aminocarbonylamino)phenoxy)-1H-benzimidazole], the IC50 in assay [1] was 100 to 1000 nM; in assay [2], 100 to 1000 nM; on GST-VEGFR2 it was less than 100 nM.
As for `COC(=O)Nc1nc2ncc(Oc3ccc(NC(=O)Nc4cc(C(F)(F)F)ccc4Cl)cc3)cc2[nH]1` [Example 73, Methyl N-(6-(4-((2-chloro-5-(trifluoromethyl)phenyl)aminocarbonylamino)phenoxy)-3,4-diaza-1H-indole-2-yl)carbamate dihydrochloride], the figures for the IC50 (in assay [1]; in assay [2]; on GST-VEGFR2) were 100 to 1000 nM, 100 to 1000 nM and less than 100 nM, respectively.
With `CN(C)CCNc1nc2cc(Oc3ccc(NC(=O)Nc4cc(C(F)(F)F)ccc4F)cc3)ccc2[nH]1` [Example 105, 2-(2-(Dimethylamino)ethylamino)-5-(4-((2-fluoro-5-(trifluoromethyl)phenyl)aminocarbonylamino)phenoxy)-1H-benzimidazole], the figures for the IC50 (in assay [1]; in assay [2]; against GST-VEGFR2) were 100 to 1000 nM, 1000 to 10000 nM and less than 100 nM, respectively.
Regarding `O=C(Nc1ccc(Oc2ccc3[nH]c(NC(=O)c4ccccc4)nc3c2)cc1)Nc1cc(C(F)(F)F)ccc1F` [Example 99, N-(5-(4-((2-Fluoro-5-(trifluoromethyl)phenyl)aminocarbonylamino)phenoxy)-1H-benzimidazol-2-yl)benzamide], the IC50 in assay [1] is less than 100 nM; in assay [2], 100 to 1000 nM.
For the molecule `CC(=O)Nc1nc2ccc(Oc3ccc(NC(=O)Nc4cc(C(F)(F)F)ccc4F)nc3)cc2n1Cc1ccccc1` [Example 110], the values for the IC50 (in assay [1]; in assay [2]; on GST-VEGFR2) were less than 100 nM, 100 to 1000 nM and 100 to 1000 nM, respectively.
With `CCc1cccc(NC(=O)Nc2cccc(Oc3ccc4[nH]c(NC(=O)OC)nc4c3)c2)c1` [Example 16, Methyl N-(5-(3-((3-ethylphenyl)aminocarbonylamino)phenoxy)-1H-benzimidazol-2-yl)carbamate], the IC50 (in assay [1]; in assay [2]; on GST-VEGFR2) was less than 100 nM each time.
In the case of `COC(=O)Nc1nc2ccc(Oc3ccc(NC(=S)Nc4cccc(C(F)(F)F)c4)cc3)cc2[nH]1` [Example 186, Methyl N-(5-(4-((3-(trifluoromethyl)phenyl)aminothiocarbonylamino)phenoxy)-1H-benzimidazol-2-yl)carbamate], the IC50 fell in the range of 1000 to 10000 nM in assay [1] and 100 to 1000 nM in assay [2].
Consider `O=C(Nc1ccc(Oc2ccc3nc(NC(=O)c4ccc(-n5cccc5)cc4)[nH]c3c2)cc1)Nc1cc(C(F)(F)F)ccc1F` [Example 90, N-(5-(4-((2-Fluoro-5-(trifluoromethyl)phenyl)aminocarbonylamino)phenoxy)-1H-benzimidazol-2-yl)-4-(pyrrol-1-yl)benzamide], for which the concentration for half-maximal inhibition (IC50) was less than 100 nM in assay [1], 1000 to 10000 nM in assay [2] and less than 100 nM against GST-VEGFR2.
Turning to `COC(=O)Nc1nc2cc(Oc3ccc(NC(=S)Nc4cccc(Cl)c4)cc3)ccc2[nH]1` [Example 184, Methyl N-(5-(4-((3-chlorophenyl)aminothiocarbonylamino)phenoxy)-1H-benzimidazol-2-yl)carbamate], the values for the IC50 (in assay [1]; in assay [2]; against GST-VEGFR2) were 1000 to 10000 nM, 1000 to 10000 nM and less than 100 nM, respectively.
With `O=C(Nc1ccc(Oc2ccc3nc(NC(=O)c4c[nH]c5ccccc45)[nH]c3c2)cc1)Nc1cc(C(F)(F)F)ccc1F` [Example 95, N-(5-(4-((2-Fluoro-5-(trifluoromethyl)phenyl)aminocarbonylamino)phenoxy)-1H-benzimidazol-2-yl)(1H-indole-3-carboxamide)], the IC50 in assay [1] was less than 100 nM; in assay [2], 100 to 1000 nM; on GST-VEGFR2, less than 100 nM.
Take `COC(=O)Nc1nc2cc([S+]([O-])c3ccc(NC(=O)Nc4cc(Cl)ccc4Cl)cc3)ccc2[nH]1` (centres unmarked) [Example 79, Methyl N-(5-(4-((2,5-dichlorophenyl)aminocarbonylamino)phenylsulfinyl)-1H-benzimidazol-2-yl)carbamate]: the IC50 in assay [1] and in assay [2] was 100 to 1000 nM throughout.
Turning to `CN1CCN(CCNc2nc3cc(Oc4ccc(NC(=O)Nc5cc(C(F)(F)F)ccc5F)cc4)ccc3[nH]2)CC1` [Example 104, 2-(2-(4-Methyl-1-piperazino)ethylamino)-5-(4-((2-fluoro-5-(trifluoromethyl)phenyl)aminocarbonylamino)phenoxy)-1H-benzimidazole], the values for the IC50 (in assay [1]; in assay [2]; against GST-VEGFR2) were 100 to 1000 nM, 100 to 1000 nM and less than 100 nM, respectively.
As to `COC(=O)Nc1nc2ccc(Oc3ccc(NC(=O)Nc4cc(C(F)(F)F)ccc4F)c[n+]3[O-])cc2[nH]1` [Example 107, Methyl N-(5-(5-((2-fluoro-5-(trifluoromethyl)phenyl)aminocarbonylamino)-1-oxo-2-pyridyloxy)-1H-benzimidazol-2-yl)carbamate], the IC50 was less than 100 nM in assay [1], 100 to 1000 nM in assay [2] and 100 to 1000 nM at GST-VEGFR2.
For `COC(=O)Nc1nc2cc(Sc3ccc(NC(=O)Nc4cc(Cl)ccc4Cl)cc3)ccc2[nH]1` [Example 57, Methyl N-(5-(4-((2,5-dichlorophenyl)aminocarbonylamino)phenylthio)-1H-benzimidazol-2-yl)carbamate], the IC50 is less than 100 nM in assay [1] and 100 to 1000 nM in assay [2].
On to `COC(=O)Nc1nc2cc(Oc3ccc(NC(=O)Nc4cc(Cl)ccc4Cl)cn3)ccc2[nH]1` [Example 112, Methyl N-(5-(5-((2,5-dichlorophenyl)aminocarbonylamino)-2-pyridyloxy)-1H-benzimidazol-2-yl)carbamate dihydrochloride], for which the IC50 (in assay [1]; in assay [2]; at GST-VEGFR2) was 100 to 1000 nM throughout.
Turning to `COC(=O)Nc1nc2ccc(Oc3cccc(NC(=O)Nc4cc(C(F)(F)F)ccc4Cl)c3)cc2[nH]1` [Example 52, Methyl N-(5-(3-((2-chloro-5-(trifluoromethyl)phenyl)aminocarbonylamino)phenoxy)-1H-benzimidazol-2-yl)carbamate hydrochloride], the IC50 in assay [1] is less than 100 nM; in assay [2], 100 to 1000 nM; against GST-VEGFR2, less than 100 nM.

The values above are taken from patent US7238813B2, “Chemical compounds” (Smithkline Beecham Corporation, priority 2000, dated 2007).
